From ChEMBL document CHEMBL5550122, “Photodynamic anticancer activity evaluation of novel 5-aminolevulinic acid and 3-hydroxypyridinone conjugates” (Bioorg Med Chem, 2024)
The source made the active and inactive calls. The rule behind the calls is not given here.

Columns and labels:
[1] = Drug metabolism assessed as esterase (unknown origin) mediated hydrolysis by measuring hydroxypyridinone formation; type: ADME; details: human
[2] = Prodrug release in human MCF7 cells assessed as 3-[(1Z,4Z,9Z,15Z)-7-(2-carboxyethyl)-3,8,12,17-tetramethyl-13,18-divinyl-21,23-dihydroporphyrin-2-yl]propanoic acid release by measuring increase in fluorescence intensity at 20 to 80 uM by microplate reader analysis; type: ADME, cell-based; details: mcf7, 80 µM, dose 20-80 µM
MCF7 [3] = assay: Cytotoxicity against human MCF7 cells assessed as reduction in cell viability at 100 uM incubated for 4 hrs under dark condition by MTT assay; type: functional, cell-based
HeLa [4] = assay: Cytotoxicity against human HeLa cells assessed as reduction in cell viability at 100 uM incubated for 4 hrs under dark condition by MTT assay; type: functional, cell-based
MCF7 [5] = assay: Cytotoxicity against human MCF7 cells assessed as reduction in cell viability preincubated for 4 hrs under dark condition followed by irradiation with blue light at 2.5 J.cm^-2 energy level for 5 mins and measured after 18 hrs by MTT assay; type: functional, cell-based; details: MCF7, light or radiation study
[6] = Prodrug release in human Hela cells assessed as 3-[(1Z,4Z,9Z,15Z)-7-(2-carboxyethyl)-3,8,12,17-tetramethyl-13,18-divinyl-21,23-dihydroporphyrin-2-yl]propanoic acid release by measuring increase in fluorescence intensity at 20 to 80 uM by microplate reader analysis; type: ADME, cell-based; details: dose 20-80 µM
A-375 [7] = assay: Cytotoxicity against human A-375 cells assessed as reduction in cell viability preincubated for 4 hrs under dark condition followed by irradiation with blue light at 2.5 J.cm^-2 energy level for 5 mins and measured after 18 hrs by MTT assay; type: functional, cell-based; details: A-375, light or radiation study
[8] = Drug metabolism assessed as esterase (unknown origin) mediated hydrolysis by measuring 5-Aminolevulinic acid formation; type: ADME; details: human
HeLa [9] = assay: Cytotoxicity against human HeLa cells assessed as reduction in cell viability preincubated for 4 hrs under dark condition followed by irradiation with blue light at 2.5 J.cm^-2 energy level for 5 mins and measured after 18 hrs by MTT assay; type: functional, cell-based; details: light or radiation study
[10] = Prodrug release in human A-375 cells assessed as 3-[(1Z,4Z,9Z,15Z)-7-(2-carboxyethyl)-3,8,12,17-tetramethyl-13,18-divinyl-21,23-dihydroporphyrin-2-yl]propanoic acid release by measuring increase in fluorescence intensity at 20 to 80 uM by microplate reader analysis; type: ADME, cell-based; details: a-375, 80 µM, dose 20-80 µM
A-375 [11] = assay: Cytotoxicity against human A-375 cells assessed as reduction in cell viability at 100 uM incubated for 4 hrs under dark condition by MTT assay; type: functional, cell-based
[12] = Prodrug release in human A-375 cells assessed as 3-[(1Z,4Z,9Z,15Z)-7-(2-carboxyethyl)-3,8,12,17-tetramethyl-13,18-divinyl-21,23-dihydroporphyrin-2-yl]propanoic acid release by measuring fold increase in fluorescence intensity at 20 to 80 uM by microplate reader analysis relative to 5-Aminolevulinic acid; type: ADME, cell-based; details: a-375, 80 µM, dose 20-80 µM
[13] = Prodrug release in human MCF7 cells assessed as 3-[(1Z,4Z,9Z,15Z)-7-(2-carboxyethyl)-3,8,12,17-tetramethyl-13,18-divinyl-21,23-dihydroporphyrin-2-yl]propanoic acid release by measuring fold increase in fluorescence intensity at 20 to 80 uM by microplate reader analysis relative to 5-Aminolevulinic acid; type: ADME, cell-based; details: mcf7, 80 µM, dose 20-80 µM
[14] = Prodrug release in human Hela cells assessed as 3-[(1Z,4Z,9Z,15Z)-7-(2-carboxyethyl)-3,8,12,17-tetramethyl-13,18-divinyl-21,23-dihydroporphyrin-2-yl]propanoic acid release by measuring fold increase in fluorescence intensity at 20 to 80 uM by microplate reader analysis relative to 5-Aminolevulinic acid; type: ADME, cell-based; details: dose 20-80 µM
MCF7 [15] = assay: Cytotoxicity against human MCF7 cells assessed as reduction in cell viability preincubated for 4 hrs under dark condition in presence of deferiprone followed by irradiation with blue light at 2.5 J.cm^-2 energy level for 5 mins and measured after 18 hrs by MTT assay; type: functional, cell-based; details: MCF7, light or radiation study
A-375 [16] = assay: Cytotoxicity against human A-375 cells assessed as reduction in cell viability preincubated for 4 hrs under dark condition in presence of deferiprone followed by irradiation with blue light at 2.5 J.cm^-2 energy level for 5 mins and measured after 18 hrs by MTT assay; type: functional, cell-based; details: A-375, light or radiation study
HeLa [17] = assay: Cytotoxicity against human HeLa cells assessed as reduction in cell viability preincubated for 4 hrs under dark condition in presence of deferiprone followed by irradiation with blue light at 2.5 J.cm^-2 energy level for 5 mins and measured after 18 hrs by MTT assay; type: functional, cell-based; details: light or radiation study
HeLa [18] = assay: Cytotoxicity against human HeLa cells assessed as reduction in cell viability at 100 to 400 uM incubated for 4 hrs under dark condition by MTT assay; type: functional, cell-based; details: dose 100-400 µM
A-375 [19] = assay: Cytotoxicity against human A-375 cells assessed as reduction in cell viability at 100 to 400 uM incubated for 4 hrs under dark condition by MTT assay; type: functional, cell-based; details: dose 100-400 µM
MCF7 [20] = assay: Cytotoxicity against human MCF7 cells assessed as reduction in cell viability at 100 to 400 uM preincubated for 4 hrs under dark condition followed by irradiation with blue light at 5 J.cm^-2 energy level and measured after 18 hrs by MTT assay; type: functional, cell-based; details: dose 100-400 µM, time 22.0 hrs
HeLa [21] = assay: Cytotoxicity against human HeLa cells assessed as reduction in cell viability at 100 to 400 uM preincubated for 4 hrs under dark condition followed by irradiation with blue light at 5 J.cm^-2 energy level and measured after 18 hrs by MTT assay; type: functional, cell-based; details: dose 100-400 µM, time 22.0 hrs
MCF7 [22] = assay: Cytotoxicity against human MCF7 cells assessed as reduction in cell viability at 100 to 400 uM incubated for 4 hrs under dark condition by MTT assay; type: functional, cell-based; details: dose 100-400 µM
A-375 [23] = assay: Cytotoxicity against human A-375 cells assessed as reduction in cell viability at 100 to 400 uM preincubated for 4 hrs under dark condition followed by irradiation with blue light at 5 J.cm^-2 energy level and measured after 18 hrs by MTT assay; type: functional, cell-based; details: dose 100-400 µM, time 22.0 hrs
A-375 [24] = assay: Cytotoxicity against human A-375 cells assessed as reduction in cell viability preincubated for 4 hrs under dark condition in presence of 5-aminolevulinic acid followed by irradiation with blue light at 2.5 J.cm^-2 energy level for 5 mins and measured after 18 hrs by MTT assay; type: functional, cell-based; details: A-375, light or radiation study
HeLa [25] = assay: Cytotoxicity against human HeLa cells assessed as reduction in cell viability preincubated for 4 hrs under dark condition in presence of 5-aminolevulinic acid followed by irradiation with blue light at 2.5 J.cm^-2 energy level for 5 mins and measured after 18 hrs by MTT assay; type: functional, cell-based; details: light or radiation study
MCF7 [26] = assay: Cytotoxicity against human MCF7 cells assessed as reduction in cell viability preincubated for 4 hrs under dark condition in presence of 5-aminolevulinic acid followed by irradiation with blue light at 2.5 J.cm^-2 energy level for 5 mins and measured after 18 hrs by MTT assay; type: functional, cell-based; details: MCF7, light or radiation study

Row | SMILES | Drug metabolism [1] | Drug metabolism [2] | Activity (MCF7 [3]) | Activity (HeLa [4]) | IC50 (MCF7 [5]) [µM] | Drug metabolism [6] | IC50 (A-375 [7]) [µM] | Drug metabolism [8] | IC50 (HeLa [9]) [µM] | Drug metabolism [10] | Activity (A-375 [11]) | Activity (HeLa [18]) | Activity (A-375 [19]) | Activity (MCF7 [20]) | Activity (HeLa [21]) | Activity (MCF7 [22]) | Activity (A-375 [23]) | also measured
1 | Cc1cc(=O)c(O)c(COC(=O)CCC(=O)CN)n1CCc1ccccc1.Cl | Metabolite_Detected | Metabolite_Detected | inactive | inactive | 67.7 | Metabolite_Detected | 47.3 | Metabolite_Detected | 30 | Metabolite_Detected | inactive |  |  |  |  |  |  | 
2 | CCCCn1c(C)cc(=O)c(O)c1COC(=O)CCC(=O)CN.Cl | Metabolite_Detected | Metabolite_Detected | inactive | inactive | 38 | Metabolite_Detected | 41.7 | Metabolite_Detected | 68.8 | Metabolite_Detected | inactive |  |  |  |  |  |  | 
3 | CCCCCCn1c(C)cc(=O)c(O)c1COC(=O)CCC(=O)CN.Cl | Metabolite_Detected | Metabolite_Detected | inactive | inactive | 43.3 | Metabolite_Detected | 28 | Metabolite_Detected | 24.2 | Metabolite_Detected | inactive |  |  |  |  |  |  | fold change (FC) [12]: 2.8; fold change (FC) [13]: 5.3; fold change (FC) [14]: 18.9
4 | NCC(=O)CCC(=O)O [AMINOLEVULINIC ACID] |  |  |  |  | > 100 |  | > 100 |  | > 100 |  |  |  |  |  |  |  |  | IC50 (MCF7 [15]): 65 µM; IC50 (A-375 [16]): 27.2 µM; IC50 (HeLa [17]): 61.8 µM
5 | COCCCn1c(C)cc(=O)c(O)c1COC(=O)CCC(=O)CN.Cl | Metabolite_Detected | Metabolite_Detected | inactive | inactive | 57.2 | Metabolite_Detected | 50.6 | Metabolite_Detected | 65.7 | Metabolite_Detected | inactive |  |  |  |  |  |  | 
6 | COC(=O)CCC(=O)CNC(=O)CCCn1cc(O)c(=O)cc1CO |  |  |  |  |  |  |  |  |  |  |  | inactive | inactive | inactive | inactive | inactive | inactive | 
7 | Cc1c(O)c(=O)ccn1C [DEFERIPRONE] |  |  |  |  |  |  |  |  |  |  |  |  |  |  |  |  |  | IC50 (A-375 [24]): 27.2 µM; IC50 (HeLa [25]): 61.8 µM; IC50 (MCF7 [26]): 65 µM
8 | COC(=O)CCC(=O)CNC(=O)Cn1cc(O)c(=O)cc1C |  |  |  |  |  |  |  |  |  |  |  | inactive | inactive | inactive | inactive | inactive | inactive | 
9 | CCOCCCn1c(C)cc(=O)c(O)c1COC(=O)CCC(=O)CN.Cl | Metabolite_Detected | Metabolite_Detected | inactive | inactive | 64.7 | Metabolite_Detected | 52.2 | Metabolite_Detected | 43.9 | Metabolite_Detected | inactive |  |  |  |  |  |  | 
10 | CCCCCCCCn1c(C)cc(=O)c(O)c1COC(=O)CCC(=O)CN.Cl | Metabolite_Detected | Metabolite_Detected |  | Active | 48.9 | Metabolite_Detected | 38.5 | Metabolite_Detected | 44.2 | Metabolite_Detected |  |  |  |  |  |  |  | 
11 | COC(=O)CCC(=O)CNC(=O)[C@H](Cc1ccccc1)NC(=O)Cn1cc(O)c(=O)cc1C |  |  |  |  |  |  |  |  |  |  |  | inactive | inactive | inactive | inactive | inactive | inactive | 
12 | CCCCCn1c(C)cc(=O)c(O)c1COC(=O)CCC(=O)CN.Cl | Metabolite_Detected | Metabolite_Detected | inactive | inactive | 45.8 | Metabolite_Detected | 46.4 | Metabolite_Detected | 47.5 | Metabolite_Detected | inactive |  |  |  |  |  |  | 
13 | COC(=O)CCC(=O)CNC(=O)CCCn1cc(O)c(=O)cc1C |  |  |  |  |  |  |  |  |  |  |  | inactive | inactive | inactive | inactive | inactive | inactive | 
